Assay results taken from ChEMBL document CHEMBL3991601, “The target landscape of clinical kinase drugs” (Science, 2017).
Calls of active or inactive are those of the source. Cut-off read from the data, not from the text of the source, for most assays here: actives have a measured Kd and inactives only a lower limit.

Legend:
[1] = molecular target: Tyrosine-protein kinase HCK (Homo sapiens, UniProt P08631)
[2] = molecular target: T1, Aurora kinase A (Homo sapiens, UniProt O14965)
T1 sequence (O14965 whole entry): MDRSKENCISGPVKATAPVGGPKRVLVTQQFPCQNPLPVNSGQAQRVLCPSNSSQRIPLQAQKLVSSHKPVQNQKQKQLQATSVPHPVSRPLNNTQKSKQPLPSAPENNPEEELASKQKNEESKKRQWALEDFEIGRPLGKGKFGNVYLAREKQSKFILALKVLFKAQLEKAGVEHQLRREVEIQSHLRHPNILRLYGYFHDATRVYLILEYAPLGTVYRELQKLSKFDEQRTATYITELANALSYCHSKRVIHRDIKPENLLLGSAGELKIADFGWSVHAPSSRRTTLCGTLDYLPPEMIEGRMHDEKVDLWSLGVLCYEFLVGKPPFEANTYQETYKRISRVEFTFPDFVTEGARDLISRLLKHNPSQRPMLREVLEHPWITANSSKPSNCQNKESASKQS

[3] = molecular target: T2, Ephrin type-B receptor 6 (Homo sapiens, UniProt O15197)
T2 sequence (O15197 whole entry): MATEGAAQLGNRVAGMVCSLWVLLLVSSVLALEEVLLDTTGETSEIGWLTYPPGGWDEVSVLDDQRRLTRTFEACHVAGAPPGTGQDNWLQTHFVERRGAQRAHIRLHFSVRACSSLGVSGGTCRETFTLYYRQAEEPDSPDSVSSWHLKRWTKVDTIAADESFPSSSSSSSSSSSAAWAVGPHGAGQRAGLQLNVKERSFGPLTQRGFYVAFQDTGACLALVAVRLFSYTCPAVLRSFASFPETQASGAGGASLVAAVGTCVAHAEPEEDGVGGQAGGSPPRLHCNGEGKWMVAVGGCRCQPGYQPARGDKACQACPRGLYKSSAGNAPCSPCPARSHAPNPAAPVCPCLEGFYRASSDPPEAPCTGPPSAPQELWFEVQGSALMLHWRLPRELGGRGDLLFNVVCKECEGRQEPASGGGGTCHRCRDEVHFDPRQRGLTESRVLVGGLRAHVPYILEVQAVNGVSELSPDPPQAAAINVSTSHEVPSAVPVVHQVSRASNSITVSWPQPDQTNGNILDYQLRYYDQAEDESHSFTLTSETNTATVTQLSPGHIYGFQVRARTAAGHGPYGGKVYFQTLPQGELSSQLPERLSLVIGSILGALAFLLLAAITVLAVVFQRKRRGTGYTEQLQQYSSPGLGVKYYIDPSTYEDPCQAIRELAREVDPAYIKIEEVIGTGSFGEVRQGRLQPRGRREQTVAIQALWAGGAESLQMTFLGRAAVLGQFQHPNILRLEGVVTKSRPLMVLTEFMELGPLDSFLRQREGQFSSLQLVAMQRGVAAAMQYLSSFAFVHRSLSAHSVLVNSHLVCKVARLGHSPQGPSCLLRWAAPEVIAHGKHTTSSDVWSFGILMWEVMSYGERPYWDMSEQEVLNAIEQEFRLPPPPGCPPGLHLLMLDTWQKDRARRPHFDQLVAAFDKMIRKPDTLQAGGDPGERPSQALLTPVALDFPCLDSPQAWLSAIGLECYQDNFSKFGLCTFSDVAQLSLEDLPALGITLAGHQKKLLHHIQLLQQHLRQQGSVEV

[4] = molecular target: Mitogen-activated protein kinase kinase kinase kinase 1 (Homo sapiens, UniProt Q92918)
[5] = molecular target: T3, Serine/threonine-protein kinase TAO3 (Homo sapiens, UniProt Q9H2K8)
T3 sequence (Q9H2K8 whole entry): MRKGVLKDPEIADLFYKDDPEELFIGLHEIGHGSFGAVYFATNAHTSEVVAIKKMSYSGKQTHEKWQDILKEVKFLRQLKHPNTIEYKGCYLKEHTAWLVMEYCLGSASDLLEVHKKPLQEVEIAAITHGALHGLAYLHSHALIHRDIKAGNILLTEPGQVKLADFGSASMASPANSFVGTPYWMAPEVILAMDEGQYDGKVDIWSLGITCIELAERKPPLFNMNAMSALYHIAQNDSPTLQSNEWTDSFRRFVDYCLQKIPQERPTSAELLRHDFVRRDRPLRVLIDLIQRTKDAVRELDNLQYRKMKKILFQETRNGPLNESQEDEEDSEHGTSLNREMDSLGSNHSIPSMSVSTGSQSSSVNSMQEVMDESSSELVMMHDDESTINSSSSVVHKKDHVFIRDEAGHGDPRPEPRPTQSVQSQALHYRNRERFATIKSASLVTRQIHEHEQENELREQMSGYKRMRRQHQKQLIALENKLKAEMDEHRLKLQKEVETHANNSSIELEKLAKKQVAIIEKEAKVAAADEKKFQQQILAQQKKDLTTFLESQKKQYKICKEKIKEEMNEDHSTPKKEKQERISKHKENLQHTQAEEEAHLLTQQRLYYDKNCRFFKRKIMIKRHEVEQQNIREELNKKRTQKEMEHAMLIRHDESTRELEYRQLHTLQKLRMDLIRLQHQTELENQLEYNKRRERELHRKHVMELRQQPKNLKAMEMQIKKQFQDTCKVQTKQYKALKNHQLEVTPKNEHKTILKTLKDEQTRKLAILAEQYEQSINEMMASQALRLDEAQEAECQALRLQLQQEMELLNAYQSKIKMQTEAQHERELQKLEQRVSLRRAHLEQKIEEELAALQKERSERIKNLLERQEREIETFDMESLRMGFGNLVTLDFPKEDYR

[6] = molecular target: Protein kinase C delta type (Homo sapiens, UniProt Q05655)
[7] = molecular target: T4, Membrane-associated tyrosine- and threonine-specific cdc2-inhibitory kinase (Homo sapiens, UniProt Q99640)
T4 sequence (Q99640 whole entry): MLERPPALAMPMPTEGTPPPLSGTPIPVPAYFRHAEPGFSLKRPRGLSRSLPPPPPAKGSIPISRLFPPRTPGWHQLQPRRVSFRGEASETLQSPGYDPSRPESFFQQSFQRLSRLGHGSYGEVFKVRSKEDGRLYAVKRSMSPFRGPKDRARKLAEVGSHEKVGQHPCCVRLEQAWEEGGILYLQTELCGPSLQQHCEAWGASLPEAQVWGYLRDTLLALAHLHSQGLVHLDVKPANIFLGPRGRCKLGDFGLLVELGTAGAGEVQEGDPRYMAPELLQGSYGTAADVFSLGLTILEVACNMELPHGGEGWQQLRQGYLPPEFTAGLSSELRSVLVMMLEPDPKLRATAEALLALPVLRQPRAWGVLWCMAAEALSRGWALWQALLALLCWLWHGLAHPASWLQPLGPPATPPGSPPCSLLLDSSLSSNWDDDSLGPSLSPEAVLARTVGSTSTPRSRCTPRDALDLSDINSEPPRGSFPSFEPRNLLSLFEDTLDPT
Note: in the data inactive means no Kd found up to 30 µM.

Protein kinase C delta type, sequence (Q05655 whole entry): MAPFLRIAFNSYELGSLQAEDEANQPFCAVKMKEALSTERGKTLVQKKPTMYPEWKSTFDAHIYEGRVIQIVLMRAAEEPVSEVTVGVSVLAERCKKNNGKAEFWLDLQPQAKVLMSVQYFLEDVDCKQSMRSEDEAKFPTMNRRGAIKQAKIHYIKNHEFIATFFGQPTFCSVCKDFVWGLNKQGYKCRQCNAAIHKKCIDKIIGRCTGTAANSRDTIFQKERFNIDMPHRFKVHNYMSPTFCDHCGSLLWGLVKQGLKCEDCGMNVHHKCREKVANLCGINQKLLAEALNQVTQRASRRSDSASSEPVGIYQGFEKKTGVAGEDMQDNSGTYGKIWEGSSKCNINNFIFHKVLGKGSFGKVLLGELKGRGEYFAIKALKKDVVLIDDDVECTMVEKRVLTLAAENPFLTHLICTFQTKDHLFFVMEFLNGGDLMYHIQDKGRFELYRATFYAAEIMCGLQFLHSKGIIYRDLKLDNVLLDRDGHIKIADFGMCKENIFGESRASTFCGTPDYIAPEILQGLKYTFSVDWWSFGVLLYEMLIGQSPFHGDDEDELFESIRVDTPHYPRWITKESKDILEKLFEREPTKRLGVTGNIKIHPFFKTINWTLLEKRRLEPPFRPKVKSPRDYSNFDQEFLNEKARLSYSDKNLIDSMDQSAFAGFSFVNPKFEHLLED
Mitogen-activated protein kinase kinase kinase kinase 1, sequence (Q92918 whole entry): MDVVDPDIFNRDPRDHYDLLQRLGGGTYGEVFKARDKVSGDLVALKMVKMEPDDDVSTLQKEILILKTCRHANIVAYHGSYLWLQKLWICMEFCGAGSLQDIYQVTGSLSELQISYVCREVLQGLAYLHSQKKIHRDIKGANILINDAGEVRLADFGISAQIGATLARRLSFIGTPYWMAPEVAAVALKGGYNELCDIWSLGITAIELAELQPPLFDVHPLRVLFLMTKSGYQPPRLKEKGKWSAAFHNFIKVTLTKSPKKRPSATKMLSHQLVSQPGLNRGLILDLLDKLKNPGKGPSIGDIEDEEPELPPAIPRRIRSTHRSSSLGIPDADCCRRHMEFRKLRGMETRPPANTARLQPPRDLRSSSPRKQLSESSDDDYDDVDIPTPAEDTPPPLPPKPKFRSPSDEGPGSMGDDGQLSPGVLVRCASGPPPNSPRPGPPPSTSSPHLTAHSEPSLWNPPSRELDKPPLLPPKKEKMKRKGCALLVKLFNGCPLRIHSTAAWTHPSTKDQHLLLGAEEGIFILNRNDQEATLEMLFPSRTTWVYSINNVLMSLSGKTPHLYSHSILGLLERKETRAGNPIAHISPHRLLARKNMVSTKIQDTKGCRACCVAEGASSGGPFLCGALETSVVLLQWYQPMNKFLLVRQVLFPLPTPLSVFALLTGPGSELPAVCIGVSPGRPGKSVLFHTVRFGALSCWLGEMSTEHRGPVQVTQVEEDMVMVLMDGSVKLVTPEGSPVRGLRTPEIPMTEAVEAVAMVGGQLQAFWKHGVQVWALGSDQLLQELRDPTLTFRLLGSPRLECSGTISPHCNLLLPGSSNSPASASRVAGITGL
Tyrosine-protein kinase HCK, sequence (P08631 whole entry): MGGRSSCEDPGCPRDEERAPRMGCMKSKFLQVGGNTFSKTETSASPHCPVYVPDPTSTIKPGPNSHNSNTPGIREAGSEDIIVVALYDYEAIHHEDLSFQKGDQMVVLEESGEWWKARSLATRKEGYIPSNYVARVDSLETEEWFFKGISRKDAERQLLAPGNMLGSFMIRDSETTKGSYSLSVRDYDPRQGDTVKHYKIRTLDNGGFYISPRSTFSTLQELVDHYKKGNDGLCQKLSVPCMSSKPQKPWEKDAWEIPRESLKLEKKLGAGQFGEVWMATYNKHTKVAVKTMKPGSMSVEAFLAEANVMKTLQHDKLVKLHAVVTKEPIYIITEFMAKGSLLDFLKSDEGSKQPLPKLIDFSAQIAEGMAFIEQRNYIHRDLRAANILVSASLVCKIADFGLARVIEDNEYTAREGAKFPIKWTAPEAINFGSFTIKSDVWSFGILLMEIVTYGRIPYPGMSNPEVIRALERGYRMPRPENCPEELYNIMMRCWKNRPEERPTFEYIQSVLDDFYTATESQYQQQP

| SMILES | Kd [1] | Kd [2] | Kd [3] | Kd [4] | Kd [5] | Kd [6] | Kd [7] |
| --- | --- | --- | --- | --- | --- | --- | --- |
| O=c1sn(-c2cccc3ccccc23)c(=O)n1Cc1ccccc1 [TIDEGLUSIB] | > 30 µM (inactive) | > 30 µM (inactive) | > 30 µM (inactive) | > 30 µM (inactive) | > 30 µM (inactive) | > 30 µM (inactive) | > 30 µM (inactive) |
| Cn1cc(-c2ccc3nnc(C(F)(F)c4ccc5ncccc5c4)n3n2)cn1 [JNJ-38877605] | > 30 µM (inactive) | > 30 µM (inactive) | > 30 µM (inactive) | > 30 µM (inactive) | > 30 µM (inactive) | > 30 µM (inactive) | > 30 µM (inactive) |
| Cn1ncc(Cl)c1-c1cc(C(=O)N[C@H](CN)Cc2cccc(F)c2)sc1Cl [AFURESERTIB] | > 30 µM (inactive) | > 30 µM (inactive) | > 30 µM (inactive) | > 30 µM (inactive) | > 30 µM (inactive) | > 30 µM (inactive) | > 30 µM (inactive) |
| CNS(=O)(=O)Nc1nccc(Cc2c(C)c3ccc(Oc4ncccn4)cc3oc2=O)c1F [AVUTOMETINIB] | > 30 µM (inactive) | > 30 µM (inactive) | > 30 µM (inactive) | – | > 30 µM (inactive) | > 30 µM (inactive) | > 30 µM (inactive) |
| CN(C)C(=O)c1cc2cnc(Nc3ccc(N4CCNCC4)cn3)nc2n1C1CCCC1 [RIBOCICLIB] | > 30 µM (inactive) | > 30 µM (inactive) | > 30 µM (inactive) | > 30 µM (inactive) | > 30 µM (inactive) | > 30 µM (inactive) | > 30 µM (inactive) |
| CCc1cnn2c(NCc3ccc[n+]([O-])c3)cc(N3CCCC[C@H]3CCO)nc12 [DINACICLIB] | > 30 µM (inactive) | – | > 30 µM (inactive) | > 30 µM (inactive) | 2.44 µM (active) | > 30 µM (inactive) | > 30 µM (inactive) |
| COc1ccc(-c2ccc3c(N4CCOC[C@@H]4C)nc(N4CCOC[C@@H]4C)nc3n2)cc1CO [AZD-8055] | > 30 µM (inactive) | > 30 µM (inactive) | > 30 µM (inactive) | > 30 µM (inactive) | > 30 µM (inactive) | > 30 µM (inactive) | > 30 µM (inactive) |
| COc1cc2nccc(Oc3ccc(NC(=O)Nc4cc(C)on4)c(Cl)c3)c2cc1OC [TIVOZANIB] | > 30 µM (inactive) | > 30 µM (inactive) | > 30 µM (inactive) | > 30 µM (inactive) | > 30 µM (inactive) | > 30 µM (inactive) | > 30 µM (inactive) |
| C[C@@H](Nc1cc(F)cc(F)c1)c1cc(C(=O)N(C)C)cc2c(=O)cc(N3CCOCC3)oc12 [AZD-8186] | > 30 µM (inactive) | > 30 µM (inactive) | > 30 µM (inactive) | > 30 µM (inactive) | > 30 µM (inactive) | > 30 µM (inactive) | > 30 µM (inactive) |
| COC(=O)[C@@]1(O)C[C@H]2O[C@]1(C)n1c3ccccc3c3c4c(c5c6ccccc6n2c5c31)C(=O)NC4 [K-252A] | > 30 µM (inactive) | 0.02 µM (active) | > 30 µM (inactive) | 0.452 µM (active) | > 30 µM (inactive) | – | > 30 µM (inactive) |
| C[C@@H](c1ccc2nccn2c1)n1nnc2ncc(-c3cnn(C)c3)nc21 [SAVOLITINIB] | > 30 µM (inactive) | > 30 µM (inactive) | > 30 µM (inactive) | – | > 30 µM (inactive) | > 30 µM (inactive) | > 30 µM (inactive) |
| CN1N=C(N)c2cn([C@@H]3O[C@H](COP(=O)(O)O)[C@@H](O)[C@H]3O)c3ncnc1c23 [TRICIRIBINE PHOSPHATE] | > 30 µM (inactive) | > 30 µM (inactive) | – | > 30 µM (inactive) | > 30 µM (inactive) | > 30 µM (inactive) | > 30 µM (inactive) |
| Cc1cc(Nc2cc(N3CCN(C)CC3)nc(/C=C/c3ccccc3)n2)n[nH]1 [ENMD-2076] | > 30 µM (inactive) | – | > 30 µM (inactive) | > 30 µM (inactive) | – | – | > 30 µM (inactive) |
| OCCn1cc(-c2cnc3nnn(Cc4ccc5ncccc5c4)c3n2)cn1 [PF-04217903] | > 30 µM (inactive) | – | > 30 µM (inactive) | > 30 µM (inactive) | > 30 µM (inactive) | > 30 µM (inactive) | > 30 µM (inactive) |
| O=C(Nc1cccc(Cl)c1)Nc1ncc(CCNc2ncnc3ccsc23)s1 [SNS-314] | > 30 µM (inactive) | – | – | > 30 µM (inactive) | > 30 µM (inactive) | – | > 30 µM (inactive) |
| Cc1nc(N)sc1-c1ccnc(Nc2ccc(N3CCOCC3)cc2)n1 [CYC-116] | – | – | 0.073 µM | > 30 µM (inactive) | – | – | > 30 µM (inactive) |
| COc1cc2nccc(Oc3ccc(NC(=O)NC4CC4)c(Cl)c3)c2cc1C(N)=O [LENVATINIB] | > 30 µM (inactive) | – | > 30 µM (inactive) | > 30 µM (inactive) | > 30 µM (inactive) | > 30 µM (inactive) | > 30 µM (inactive) |
| O=C(O)[C@]1(Cc2cccc(Nc3nccs3)n2)CC[C@@H](Oc2cccc(Cl)c2F)CC1 [MK-5108] | > 30 µM (inactive) | – | > 30 µM (inactive) | > 30 µM (inactive) | > 30 µM (inactive) | > 30 µM (inactive) | > 30 µM (inactive) |
| COc1cc(CCc2cc(NC(=O)c3ccc(N4C[C@@H](C)N[C@@H](C)C4)cc3)n[nH]2)cc(OC)c1 [AZD-4547] | > 30 µM (inactive) | – | > 30 µM (inactive) | 0.354 µM (active) | > 30 µM (inactive) | > 30 µM (inactive) | > 30 µM (inactive) |
